Inhibition data for 18 compounds are collected here from patent publication US11673876B2, “Substituted aminobenzyl heteroaryl compounds as EGFR and/or PI3K inhibitors” (Mekanistic Therapeutics LLC, priority 2020, dated 2023).

Holding throughout (format): biochemical
One assay addresses DNA-PK (Homo sapiens (Human), UniProt P78527). The assay can be described thus: Z'-LYTE / Adapta kinase assay, DNA-PK. Particulars: read-out: DNA-PK % Inh. @ 100 nM. An excerpt:
(§1) The Z′-LYTE® biochemical assay employs a fluorescence-based, coupled-enzyme format and is based on the differential sensitivity of phosphorylated and non-phosphorylated peptides to proteolytic cleavage (FIG. 6). The peptide substrate is labeled with two fluorophores one at each end—that make up a FRET pair. In the primary reaction, the kinase transfers the gamma-phosphate of ATP to a single tyrosine, serine or threonine residue in a synthetic FRET-peptide. In the secondary reaction, a site-specific protease recognizes and cleaves non-phosphorylated FRET-peptides. Phosphorylation of FRET-peptides suppresses cleavage by the Development Reagent. Cleavage disrupts FRET between the donor (i.e., coumarin) and acceptor (i.e., fluorescein) fluorophores on the FRET-peptide, whereas uncleaved, phosphorylated FRET-peptides maintain FRET. A ratiometric method, which calculates the ratio (the Emission Ratio) of donor emission to acceptor emission after excitation of the donor fluorophore at 400 nm, is used to quantitate reaction progress.
(§2) A significant benefit of this ratiometric method for quantitating reaction progress is the elimination of well-to-well variations in FRET-peptide concentration and signal intensities. As a result, the assay yields very high Z′-factor values (>0.7) at a low percent phosphorylation.
(§3) Both cleaved and uncleaved FRET-peptides contribute to the fluorescence signals and therefore to the Emission Ratio. The extent of phosphorylation of the FRET-peptide can be calculated from the Emission Ratio.
(§4) Enzyme: The ADAPTA universal kinase assay is a homogenous, fluorescent based immunoassay for the detection of ADP. In contrast to ATP depletion assays, the ADAPTA assay is extremely sensitive to ADP formation such that a majority of the signal change occurs in the first 10-20% conversion of ATP to ADP. This makes the ADAPTA universal kinase assay ideally suited for use with low activity kinases.
(§5) The principle of the ADAPTA universal kinase assay is outlined below. The assay itself can be divided into two phases: a kinase reaction phase, and an ADP detection phase. In the kinase reaction phase, all components required for the kinase reaction are added to the well, and the reaction is allowed to incubate for 60 minutes.
(§6) Z′-LYTE® Assay Conditions:
(§7) Test Compounds: The Test Compounds are screened in 1% DMSO (final) in the well. For 10 point titrations, 3-fold serial dilutions are conducted from the starting concentration.
(§8) Peptide/Kinase Mixtures: All Peptide/Kinase Mixtures are diluted to a 2× working concentration in the appropriate Kinase Buffer.
(§9) ATP Solution: All ATP Solutions are diluted to a 4× working concentration in Kinase Buffer (50 mM HEPES pH 7.5, 0.01% BRIJ-35, 10 mM MgCl2, 1 mM EGTA). ATP Km apparent is previously determined using a Z′-LYTE® assay.
(§10) Development Reagent Solution: The Development Reagent is diluted in Development Buffer. […]
(§11) 2.5 μL—4× Test Compound or 100 nL 100× plus 2.4 μL kinase buffer. 2. 5 μL—2× Peptide/Kinase Mixture. 3. 2.5 μL—4× ATP Solution. 4. 30-second plate shake. 5. 60-minute Kinase Reaction incubation at room temperature. 6. 5 μL—Development Reagent Solution. 7. 30-second plate shake. 8. 60-minute Development Reaction incubation at room temperature. 9.

A further assay concerns the target EGFR (Homo sapiens (Human), UniProt P00533). Nature of the assay: Z'-LYTE / Adapta kinase assay, EGFR. Particulars: read-out: EGFR % Inh. @ 100 nM.
From the text: as §1, §2, §3, §4, §5, §6, §7, §8, §9, §10, §11

For the next assay, the target named is PI3Ka (Homo sapiens (Human), UniProt P42336). The assay can be described thus: Z'-LYTE / Adapta kinase assay, PI3Ka. To be noted: read-out: PI3Ka % Inh. @ 100 nM.
From the text: as §1, §2, §3, §4, §5, §6, §7, §8, §9, §10, §11

Sequence of EGFR (P00533 25-1210): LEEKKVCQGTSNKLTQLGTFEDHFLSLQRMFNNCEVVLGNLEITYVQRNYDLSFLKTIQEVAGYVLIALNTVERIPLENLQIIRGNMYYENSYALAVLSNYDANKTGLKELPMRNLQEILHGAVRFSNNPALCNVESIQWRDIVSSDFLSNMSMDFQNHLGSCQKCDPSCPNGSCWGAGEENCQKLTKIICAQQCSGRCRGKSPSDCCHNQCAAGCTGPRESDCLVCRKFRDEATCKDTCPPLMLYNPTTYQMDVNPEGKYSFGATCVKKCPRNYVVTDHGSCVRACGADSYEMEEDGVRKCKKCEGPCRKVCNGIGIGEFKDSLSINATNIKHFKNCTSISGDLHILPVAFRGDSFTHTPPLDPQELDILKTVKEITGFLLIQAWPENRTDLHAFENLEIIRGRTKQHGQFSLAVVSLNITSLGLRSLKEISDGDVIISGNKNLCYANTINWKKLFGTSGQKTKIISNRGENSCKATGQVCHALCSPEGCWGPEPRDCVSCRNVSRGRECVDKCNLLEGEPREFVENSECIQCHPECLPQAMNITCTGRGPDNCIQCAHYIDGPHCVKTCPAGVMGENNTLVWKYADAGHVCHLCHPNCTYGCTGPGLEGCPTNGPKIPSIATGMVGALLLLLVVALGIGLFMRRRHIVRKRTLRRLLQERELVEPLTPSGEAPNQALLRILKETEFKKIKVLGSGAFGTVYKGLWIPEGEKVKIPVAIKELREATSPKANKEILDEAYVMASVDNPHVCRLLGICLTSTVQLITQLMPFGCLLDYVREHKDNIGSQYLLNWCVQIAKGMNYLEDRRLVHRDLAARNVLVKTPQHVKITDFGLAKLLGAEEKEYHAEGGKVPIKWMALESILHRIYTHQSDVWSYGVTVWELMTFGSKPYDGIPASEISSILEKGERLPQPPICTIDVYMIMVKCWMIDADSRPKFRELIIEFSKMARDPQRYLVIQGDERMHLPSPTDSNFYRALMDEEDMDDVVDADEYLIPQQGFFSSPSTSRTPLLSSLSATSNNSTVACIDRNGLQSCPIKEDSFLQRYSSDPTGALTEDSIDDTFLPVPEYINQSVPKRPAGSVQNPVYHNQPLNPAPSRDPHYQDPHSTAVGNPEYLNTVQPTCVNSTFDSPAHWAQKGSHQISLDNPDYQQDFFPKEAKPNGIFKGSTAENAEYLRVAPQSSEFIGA
Sequence of PI3Ka (P42336 whole entry): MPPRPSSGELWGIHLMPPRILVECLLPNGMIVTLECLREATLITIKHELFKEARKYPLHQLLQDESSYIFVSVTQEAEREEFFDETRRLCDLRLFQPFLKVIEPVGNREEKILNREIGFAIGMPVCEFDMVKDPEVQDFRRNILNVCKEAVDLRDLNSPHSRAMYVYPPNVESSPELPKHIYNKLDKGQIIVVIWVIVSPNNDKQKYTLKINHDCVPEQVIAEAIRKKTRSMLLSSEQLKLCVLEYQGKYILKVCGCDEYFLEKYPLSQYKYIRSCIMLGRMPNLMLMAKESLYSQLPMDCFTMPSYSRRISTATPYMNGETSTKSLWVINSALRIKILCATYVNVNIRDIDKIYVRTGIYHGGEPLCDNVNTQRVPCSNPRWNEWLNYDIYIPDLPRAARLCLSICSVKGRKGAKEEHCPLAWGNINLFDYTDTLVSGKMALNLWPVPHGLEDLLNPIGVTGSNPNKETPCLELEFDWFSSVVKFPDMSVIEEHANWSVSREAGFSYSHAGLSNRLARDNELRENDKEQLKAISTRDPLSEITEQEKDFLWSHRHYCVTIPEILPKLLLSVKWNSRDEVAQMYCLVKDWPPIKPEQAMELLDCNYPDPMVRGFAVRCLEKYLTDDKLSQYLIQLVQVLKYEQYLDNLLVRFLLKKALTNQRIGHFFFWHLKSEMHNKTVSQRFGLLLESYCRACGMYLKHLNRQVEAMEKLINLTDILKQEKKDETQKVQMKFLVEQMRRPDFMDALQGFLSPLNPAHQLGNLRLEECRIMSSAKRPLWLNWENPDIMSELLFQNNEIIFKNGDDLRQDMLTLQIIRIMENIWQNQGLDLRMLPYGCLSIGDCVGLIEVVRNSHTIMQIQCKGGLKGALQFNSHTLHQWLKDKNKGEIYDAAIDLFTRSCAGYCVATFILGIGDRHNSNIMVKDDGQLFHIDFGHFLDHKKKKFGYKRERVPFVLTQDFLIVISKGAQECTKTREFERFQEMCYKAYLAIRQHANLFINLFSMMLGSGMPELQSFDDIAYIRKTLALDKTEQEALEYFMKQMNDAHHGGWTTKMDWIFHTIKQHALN
Sequence of PI3Ka (P27986 whole entry partner): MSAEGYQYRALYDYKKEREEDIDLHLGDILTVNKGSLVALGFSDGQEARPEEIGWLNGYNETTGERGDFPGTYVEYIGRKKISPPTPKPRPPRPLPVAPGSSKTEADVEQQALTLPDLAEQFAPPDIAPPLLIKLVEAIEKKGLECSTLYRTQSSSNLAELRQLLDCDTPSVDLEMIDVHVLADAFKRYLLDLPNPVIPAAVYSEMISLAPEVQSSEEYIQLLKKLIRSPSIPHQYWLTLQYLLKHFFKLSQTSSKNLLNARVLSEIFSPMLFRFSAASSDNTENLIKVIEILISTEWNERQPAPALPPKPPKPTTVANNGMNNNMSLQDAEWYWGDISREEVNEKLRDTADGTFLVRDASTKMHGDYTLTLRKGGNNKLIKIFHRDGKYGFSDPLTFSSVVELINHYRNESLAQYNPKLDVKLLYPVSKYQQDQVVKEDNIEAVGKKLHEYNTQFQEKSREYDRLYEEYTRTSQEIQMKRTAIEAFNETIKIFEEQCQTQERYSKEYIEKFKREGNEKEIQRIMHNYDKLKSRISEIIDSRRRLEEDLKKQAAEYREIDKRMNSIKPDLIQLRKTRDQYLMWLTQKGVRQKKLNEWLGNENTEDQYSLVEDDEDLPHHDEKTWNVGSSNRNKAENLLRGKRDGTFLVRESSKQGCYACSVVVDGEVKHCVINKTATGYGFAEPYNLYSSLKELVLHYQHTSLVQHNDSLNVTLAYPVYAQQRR

For `CC(Nc1c(C#N)cnc2ccc(-c3cnc4ccccc4c3)cc12)c1ccccc1` (stereo not drawn) [Compound 122, 4-(1-phenylethylamino)-6-(3-quinolyl)quinoline-3-carbonitrile], the inhibition at 0.1 µM at DNA-PK is less than 10%; on EGFR it was 10 to 80%; on PI3Ka, less than 10%.

`CC(Nc1c(C#N)cnc2ccc(-c3cccnc3)cc12)c1ccccc1` (stereo not drawn) [Compound 123, 4-(1-phenylethylamino)-6-(3-pyridyl) quinoline-3-carbonitrile]: the inhibition at 0.1 µM on DNA-PK is 10 to 80%; at EGFR it was more than 90%; on PI3Ka, less than 10%.

Take `CC(Nc1c(C#N)cnc2ccc(-c3n[nH]c4ccncc34)cc12)c1ccccc1` (stereo not drawn) [Compound 124, 4-(1-phenylethylamino)-6-(1H-pyrazolo [4,3-c]pyridin-3-yl) quinoline-3-carbonitrile]: the values for the inhibition at 0.1 µM on DNA-PK, at EGFR and at PI3Ka were less than 10%, more than 90% and less than 10%, respectively.

As to `CC(Nc1c(C#N)cnc2ccc(-c3n[nH]c4cnccc34)cc12)c1ccccc1` (stereo not drawn) [Compound 125, 4-(1-phenylethylamino)-6-(1H-pyrazolo [3,4-c]pyridin-3-yl)quinoline-3-carbonitrile], the inhibition at 0.1 µM on DNA-PK is 10 to 80%; at EGFR, more than 90%; at PI3Ka it was less than 10%.

`COc1ncc(-c2ccc3ncc(C#N)c(NC(C)c4ccccc4)c3c2)cc1C#N` (stereo not drawn) [Compound 126, 6-(5-cyano-6-methoxy-3-pyridyl)-4-(1-phenylethylamino) quinoline-3-carbonitrile]: the inhibition at 0.1 µM at DNA-PK is less than 10%; at EGFR it was 10 to 80%; on PI3Ka, 10 to 80%.

Consider `CC(Nc1c(C#N)cnc2ccc(-c3cccc(-c4n[nH]c(=O)o4)c3)cc12)c1ccccc1` (stereo not drawn) [Compound 127, 6-[3-(2-oxo-3H-1,3,4-oxadiazol-5-yl)phenyl]-4-(1-phenylethylamino) quinoline-3-carbonitrile], for which the inhibition at 0.1 µM is 10 to 80% on DNA-PK, 80 to 90% on EGFR and less than 10% at PI3Ka.

On to `CC(Nc1c(C#N)cnc2ccc(-c3cccc(-c4nnc[nH]4)c3)cc12)c1ccccc1` (stereo not drawn) [Compound 128, 4-(1-phenylethylamino)-6-[3-(4H-1,2,4-triazol-3-yl)phenyl]quinoline-3-carbonitrile], for which the results for the inhibition at 0.1 µM at DNA-PK, at EGFR and at PI3Ka were less than 10%, 80 to 90% and less than 10%, respectively.

For `CC(Nc1c(C#N)cnc2ccc(-c3cc(F)c(O)c(F)c3)cc12)c1ccccc1` (stereo not drawn) [Compound 130, 6-(3,5-difluoro-4-hydroxy-phenyl)-4-(1-phenylethylamino) quinoline-3-carbonitrile], the inhibition at 0.1 µM on DNA-PK was less than 10%; on EGFR, 10 to 80%; on PI3Ka it was less than 10%.

As for `CC(Nc1c(C#N)cnc2ccc(-c3cc(Cl)c(O)c(Cl)c3)cc12)c1ccccc1` (stereo not drawn) [Compound 131, 6-(3,5-dichloro-4-hydroxy-phenyl)-4-(1-phenylethylamino) quinoline-3-carbonitrile], the inhibition at 0.1 µM at DNA-PK is less than 10%; at EGFR it was 10 to 80%; at PI3Ka it was less than 10%.

Take `COc1ncc(-c2ccc3ncnc(N[C@H](C)c4ccccc4)c3c2)cc1C#N` [Compound 132, 2-methoxy-5-[4-[[(1R)-1-phenylethyl]amino]quinazolin-6-yl]pyridine-3-carbonitrile]: the inhibition at 0.1 µM at DNA-PK was less than 10%; on EGFR it was 10 to 80%; at PI3Ka, less than 10%.

`C[C@@H](Nc1ncnc2ccc(-c3cncc(C(=O)NC#N)c3)cc12)c1ccccc1` [Compound 133, (R)-N-cyano-5-(4-((1-phenylethyl)amino)quinazolin-6-yl)nicotinamide]: the inhibition at 0.1 µM at DNA-PK, on EGFR and on PI3Ka was less than 10% in each case.

On to `C[C@@H](Nc1ncnc2ccc(-c3cncc(C(=O)N(C)O)c3)cc12)c1ccccc1` [Compound 134, (R)-N-hydroxy-N-methyl-5-(4-((1-phenylethyl)amino)quinazolin-6-yl)nicotinamide], for which the values for the inhibition at 0.1 µM on DNA-PK, on EGFR and at PI3Ka were less than 10%, more than 90% and less than 10%, respectively.

For the compound `COC(=O)c1cncc(-c2ccc3ncnc(N[C@H](C)c4ccccc4)c3c2)c1` [Compound 135, methyl 5-[4-[[(1R)-1-phenylethyl]amino]quinazolin-6-yl]pyridine-3-carboxylate], the inhibition at 0.1 µM is less than 10% at DNA-PK, more than 90% at EGFR and less than 10% on PI3Ka.

As to `C[C@@H](Nc1ncnc2ccc(-c3ccc4c(c3)C(=O)OC4)cc12)c1ccccc1` [Compound 136, 6-[4-[[(1R)-1-phenylethyl]amino]quinazolin-6-yl]-3H-isobenzofuran-1-one], the inhibition at 0.1 µM on DNA-PK was less than 10%; on EGFR, more than 90%; on PI3Ka, less than 10%.

In the case of `C[C@@H](Nc1ncnc2ccc(-c3cccc(-c4nnc[nH]4)c3)cc12)c1ccccc1` [Compound 137, N-[(1R)-1-phenylethyl]-6-[3-(4H-1,2,4-triazol-3-yl)phenyl]quinazolin-4-amine], the inhibition at 0.1 µM on DNA-PK is less than 10%; at EGFR, more than 90%; at PI3Ka, 10 to 80%.

For the compound `C[C@@H](Nc1ncnc2ccc(-c3cncc(-c4nnc[nH]4)c3)cc12)c1ccccc1` [Compound 138, (R)-6-(5-(4H-1,2,4-triazol-3-yl)pyridin-3-yl)-N-(1-phenylethyl)quinazolin-4-amine], the inhibition at 0.1 µM at DNA-PK was 10 to 80%; at EGFR it was more than 90%; on PI3Ka, less than 10%.

Regarding `CC(Nc1ncnc2ccc(-c3cnc4cnccn34)cc12)c1ccccc1` (stereo not drawn) [Compound 139, 6-imidazo[1,2-a]pyrazin-3-yl-N-(1-phenylethyl)quinazolin-4-amine], the inhibition at 0.1 µM on DNA-PK is less than 10%; at EGFR it was 10 to 80%; at PI3Ka, 10 to 80%.

`OCC(Nc1ncnc2ccc(-c3cnc4cnccn34)cc12)c1ccccc1` (stereo not drawn) [Compound 140, 2-[(6-imidazo[1,2-a]pyrazin-3-ylquinazolin-4-yl)amino]-2-phenyl-ethanol]: the figures for the inhibition at 0.1 µM on DNA-PK, at EGFR and on PI3Ka were less than 10%, 10 to 80% and less than 10%, respectively.
